Measurements: article PMC7089965 (Frontiers in Microbiology, 2020)
≈ marks a conversion by molar mass, not a printed value. Read-outs that look alike come from different tables or passages of the source. Where a SMILES comes first, the peptide text is derived from it. [ ]: non-standard residue; d: D form. Nspe = C[C@H](NCC(=O)O)c1ccccc1; NHexGly = CCCCCCNCC(=O)O; Nlys = NCCCCNCC(=O)O

Key:
M. bovis BCG = conditions: broth microdilution, 10^6 CFU/mL, 7 days, 37°C, OD595 and visual
[1] = system: MDR clinical isolate M. tuberculosis CSU87; conditions: broth microdilution, 10^6 CFU/mL, 7 days, 37°C, OD595 and visual
M. tuberculosis CSU87 = conditions: 7 days, CFU enumeration, three independent experiments

Structure (SMILES)	MIC BCG (M. bovis BCG) [mg/L]	MIC CSU87 [1] [mg/L]	killing of CSU87 (M. tuberculosis CSU87; 2 × MIC (8 mg/L)) [%]	killing of CSU87 (M. tuberculosis CSU87; 4 × MIC (16 mg/L)) [%]
CCCCCCNCC(=O)N(CC(=O)N(CCCCN)CC(N)=O)[C@@H](C)c1ccccc1 [BM 1]	16 to 32			
CCCCCCNCC(=O)N(CC(=O)N(CCCCN)CC(=O)N(CCCCCC)CC(=O)N(CC(=O)N(CCCCN)CC(N)=O)[C@@H](C)c1ccccc1)[C@@H](C)c1ccccc1 [BM 2] (H-[NHexGly][Nspe][Nlys][NHexGly][Nspe][Nlys]-NH2)	2 to 4	4 (≈ 4.55 µM)	> 99	99.9
CCCCCCNCC(=O)N(CC(=O)N(CCCCN)CC(=O)N(CCCCCC)CC(=O)N(CC(=O)N(CCCCN)CC(=O)N(CCCCCC)CC(=O)N(CC(=O)N(CCCCN)CC(N)=O)[C@@H](C)c1ccccc1)[C@@H](C)c1ccccc1)[C@@H](C)c1ccccc1 [BM 3] (H-[NHexGly][Nspe][Nlys][NHexGly][Nspe][Nlys][NHexGly][Nspe][Nlys]-NH2)	4 to 8	16 (≈ 12.2 µM)		
